Reference: patent US11103602B2, “PET imaging of zinc transport” (Mayo Foundation for Medical Education and Research, priority 2013, dated 2021)
Where “and” joins values, the source holds several entries; their conditions need not be identical. Equal values may be shown once.

How the values were obtained:
[1] = brain at 30 minutes; vs Be, Sc, V, Cr, Mn, Fe, Co, As, Se, Rb, Sr, Y, Zr, Tc, Ru; cited from earlier work
[2] = cited from earlier work
[3] = Pharmacokinetics of ^63Zn Citrate in blood and plasma of an Alzheimer's disease patient; assay type: in vivo, human
Procedure: Venous blood samples were taken in heparinized tubes after injection of radiotracer. The samples were centrifuged, and plasma separated. The curves show a rapid clearance of ^63Zn from the blood that is completed by 90 minutes. After this time, the concentrations of ^63Zn in both plasma and whole blood are relatively constant. The concentration of ^63Zn in whole-blood rises relative to plasma to reach equilibrium at around 90 minutes post-injection.

[4] = Biodistribution of ^63Zn citrate in normal mice; assay type: in vivo
Procedure: Uptake may be measured in units of Standardized Uptake Value (SUV)=(uptake/g tissue)/(injected dose/g body mass).
Biodistribution characteristics of ^63Zn citrate were investigated in male B6.SJL mice (n=4) (Jackson Laboratories, Bar Harbor, Me., USA) under the approval of the Mayo Clinic Institutional Animal Care and Use Committee. Animals were administered ^63Zn citrate (˜1.8-3.6 MBq) into a tail vein and euthanized at 60 minutes for biodistribution analysis. Tissues were weighed and counted for radioactivity. Biodistribution data were expressed as Standard Uptake Value (SUV)=(counts/g)tissue/(injected dose counts/wt. of mouse (g)).
Biodistribution data was expressed as mean±sd. Statistical comparison of analytical data between groups of runs was performed using the two-tailed Student's T-test. Statistical comparison of intracerebral regional uptake of ^63Zn was performed using ANOVA. P-values <0.05 were considered statistically significant.

[5] = Pharmacokinetics of ^63Zn Citrate in cerebral cortical region of interest; assay type: in vivo, human; details: for Vascular clearance phase in cerebral cortical region of interest: post-injection
[6] = PET images of ^63Zn Citrate in human subjects; assay type: in vivo
Description: High uptake is seen in liver, pancreas, spleen, intestines, and thyroid.

[7] = Biodistribution of ^63Zn citrate in normal mice; assay type: in vivo; remark: listed apart in the source
[8] = mean of normal mice, 1 hour after IV
[9] = subject with Alzheimer's disease
[10] = individual normal (Wild) mice 1-5, 1 hour after IV
[11] = individual normal (Wild) mice 3-5, 1 hour after IV
[12] = mean of normal mice, 1 hour after IV, listed as 63Zn
[13] = mean of normal mice, 1 hour after IV, listed as 63Zn Citrate

In the case of `[65Zn]` [^65Zn], the “Zinc uptake in brain relative to the other metal ions measured” value [1] is given as “several fold higher”.
In the case of `CN(C)Cc1ccc2c(Cl)cc(Cl)c(O)c2n1` [PBT2], the “Levels of AβO and p-Tau in the cerebrospinal fluid (CSF)” value ([2]; AD patients treated for a 12-week period) is listed as “significantly decreased” and the Cognitive test scores ([2]; AD patients, 12-week period, highest dose level (250 mg daily)) is listed as “significant improvement”.
In the case of `O=C([O-])CC(O)(CC(=O)[O-])C(=O)[O-].O=C([O-])CC(O)(CC(=O)[O-])C(=O)[O-].[63Zn+2].[63Zn+2].[63Zn+2]` [^63Zn citrate], the “Time at which whole-blood concentration relative to plasma reaches equilibrium” value ([3]; post-injection) was “around 90 minutes”, the “Time by which clearance from the blood is completed” value ([3]; venous blood samples after injection) was at most 90 min and the “SUV, Kidney, Average” value [4, 8] was 4.2±1.3 SUV and 4.21 ± 1.30 SUV. The “Differences in SUVs between intracerebral regions (ANOVA)” value ([4]; normal mice, 1 hour) was “did not show statistically significant differences”, the “Uptake in pancreas, liver, kidneys, upper intestines, prostate and seminal vesicles (in words)” value ([4]; normal mice, 1 hour after IV) was “high uptake” and the “Uptake in brain regions (regional SUVs)” value ([4]; normal mice, 1 hour after IV, span over brain regions) was 0.2-0.5 SUV. For the same compound, the “Murine brain uptake (in words)” value ([4]; normal mice, 60 minutes) was “moderately low, but significant”, the “Clearance from the cortical brain region between 50 minutes and 90 minutes” value ([5]; healthy elderly subject) was “little clearance” and the “Vascular clearance phase in cerebral cortical region of interest” value ([5]; healthy elderly subject) was “rapid vascular clearance phase in the first minute”. For the same compound, the “Clearance from the cortical brain region between 50 minutes and 90 minutes” value [5, 9] was “little clearance”, the “Vascular clearance phase in cerebral cortical region of interest” value [5, 9] was “rapid vascular clearance phase in the first minute” and the “Uptake in cerebral cortex, prostate, pituitary gland, and salivary glands (PET)” value ([6]; Alzheimer's disease subject) was “Moderate to low uptake”. The “Uptake in liver, pancreas, spleen, intestines, and thyroid (PET)” value ([6]; Alzheimer's disease subject) was “High uptake”, the “Uptake in cerebral cortex, pituitary gland, and salivary glands (PET)” value ([6]; healthy elderly human subject) was “Moderate to low uptake” and the “Uptake in liver, pancreas, spleen, intestines, and thyroid (PET)” value ([6]; healthy elderly human subject) was “High uptake”. For the same compound, the “Brain penetration (in words)” value ([7]; five normal male mice, IV, 1 hour) was “brain penetrant”, the “SUV, Bladder” value [7, 10] was 1.27 SUV and 3.66 SUV and 1.13 SUV and 0.73 SUV and 0.18 SUV and the “SUV, Blood” value [7, 10] was 0.47 SUV and 0.36 SUV and 0.94 SUV and 0.69 SUV and 0.38 SUV. The “SUV, Bone” value [7, 10] was 0.72 SUV and 0.5 SUV and 1.11 SUV (2×) and 0.38 SUV, the “SUV, Brain Stem” value [7, 10] was 0.25 SUV (2×) and 0.34 SUV and 0.32 SUV and 0.11 SUV and the “SUV, Caudate Nuclei” value [7, 10] was 0.34 SUV and 0.23 SUV and 0.57 SUV and 0.63 SUV and 0.09 SUV. For the same compound, the “SUV, Cerebellum” value [7, 10] was 0.27 SUV (2×) and 0.38 SUV and 0.49 SUV and 0.13 SUV, the “SUV, Cortex” value [7, 10] was 0.2 SUV (2×) and 0.19 SUV and 0.27 SUV and 0.09 SUV and the “SUV, Heart” value [7, 10] was 1.11 SUV (2×) and 1.47 SUV and 1.1 SUV and 0.82 SUV. The “SUV, Hippocampus” value [7, 10] was 0.28 SUV and 0.24 SUV and 0.88 SUV and 0.87 SUV and 0.12 SUV, the “SUV, Kidney” value [7, 10] was 3.8 SUV and 4.32 SUV and 6.01 SUV and 4.49 SUV and 2.42 SUV and the “SUV, Liver” value [7, 10] was 6.18 SUV and 5.27 SUV and 8.72 SUV and 6.29 SUV and 3.4 SUV. For the same compound, the “SUV, Lung” value [7, 10] was 2.67 SUV and 1.8 SUV and 2.54 SUV and 2.19 SUV and 1.13 SUV, the “SUV, Muscle” value [7, 10] was 0.2 SUV and 0.19 SUV and 0.31 SUV and 0.26 SUV and 0.1 SUV and the “SUV, Pancreas” value [7, 10] was 10.67 SUV and 5.25 SUV and 11.95 SUV and 10.68 SUV and 5.33 SUV. For the same compound, the “SUV, Spleen” value [7, 10] was 2.37 SUV and 1.8 SUV and 3.71 SUV and 2.62 SUV and 0.97 SUV, the “SUV, Thalamus” value [7, 10] was 0.29 SUV and 0.25 SUV and 0.38 SUV and 0.28 SUV and 0.11 SUV and the “SUV, Upper Intestine” value [7, 10] was 3.02 SUV and 2.99 SUV and 7.66 SUV and 6.46 SUV and 3.47 SUV. The “SUV, Whole Brain” value [7, 10] was 0.25 SUV and 0.23 SUV and 0.35 SUV and 0.3 SUV and 0.1 SUV, the “SUV, Prostate” value [7, 11] was 0.47 SUV and 0.85 SUV and 0.44 SUV and the “SUV, Seminal Vesicle” value [7, 11] was 1.397 SUV and 2.588 SUV and 1.09 SUV. For the same compound, the “SUV, Bladder, Average” value [7, 8] was 1.39 SUV, the “SUV, Blood, Average” value [7, 8] was 0.57 ± 0.25 SUV and the “SUV, Bone, Average” value [7, 8] was 0.76 ± 0.34 SUV. For the same compound, the “SUV, Brain Stem, Average” value [7, 8] was 0.25 ± 0.09 SUV, the “SUV, Caudate Nuclei, Average” value [7, 8] was 0.37 ± 0.23 SUV and the “SUV, Cerebellum, Average” value [7, 8] was 0.31 ± 0.14 SUV. The “SUV, Cortex, Average” value [7, 8] was 0.19 ± 0.07 SUV, the “SUV, Heart, Average” value [7, 8] was 1.12 ± 0.23 SUV and the “SUV, Hippocampus, Average” value [7, 8] was 0.48 ± 0.37 SUV. For the same compound, the “SUV, Liver, Average” value [7, 8] was 6.0±1.9 SUV and 5.97 ± 1.92 SUV, the “SUV, Lung, Average” value [7, 8] was 2.06 ± 0.62 SUV and the “SUV, Muscle, Average” value [7, 8] was 0.21 ± 0.08 SUV. The “SUV, Pancreas, Average” value [7, 8] was 8.8±3.2 SUV and 8.78 ± 3.22 SUV, the “SUV, Prostate, Average” value [7, 8] was 0.58 ± 0.23 SUV and the “SUV, Seminal Vesicle, Average” value [7, 8] was 1.69 ± 0.79 SUV. The “SUV, Spleen, Average” value [7, 8] was 2.30 ± 1.01 SUV, the “SUV, Thalamus, Average” value [7, 8] was 0.26 ± 0.10 SUV and the “SUV, Upper Intestine, Average” value [7, 8] was 4.7±2.1 SUV and 4.72 ± 2.18 SUV. For the same compound, the “SUV, Whole Brain, Average” value [7, 8] was 0.24 ± 0.09 SUV, the “SUV, Pancreas, Average” value [7, 12] was 8.8±3.2 SUV and the “SUV, Whole Brain, Average” value [7, 12] was 0.24±0.09 SUV. The “SUV, Blood, Average” value [7, 13] was 0.57 SUV, the “SUV, Bone, Average” value [7, 13] was 0.76 SUV and the “SUV, Brain Stem, Average” value [7, 13] was 0.25 SUV. The “SUV, Caudate Nuclei, Average” value [7, 13] was 0.37 SUV, the “SUV, Cerebellum, Average” value [7, 13] was 0.31 SUV and the “SUV, Cortex, Average” value [7, 13] was 0.19 SUV. For the same compound, the “SUV, Heart, Average” value [7, 13] was 1.12 SUV, the “SUV, Hippocampus, Average” value [7, 13] was 0.48 SUV and the “SUV, Kidney, Average” value [7, 13] was 4.21 SUV. For the same compound, the “SUV, Liver, Average” value [7, 13] was 5.97 SUV, the “SUV, Lung, Average” value [7, 13] was 2.06 SUV and the “SUV, Muscle, Average” value [7, 13] was 0.21 SUV. The “SUV, Pancreas, Average” value [7, 13] was 8.78 SUV, the “SUV, Prostate, Average” value [7, 13] was 0.58 SUV and the “SUV, Seminal Vesicle, Average” value [7, 13] was 1.69 SUV. For the same compound, the “SUV, Spleen, Average” value [7, 13] was 2.3 SUV, the “SUV, Thalamus, Average” value [7, 13] was 0.26 SUV and the “SUV, Upper Intestine, Average” value [7, 13] was 4.72 SUV. For the same compound, the “SUV, Whole Brain, Average” value [7, 13] was 0.24 SUV.
